Data from ChEMBL document CHEMBL5042492, “Noncovalent CDK12/13 dual inhibitors-based PROTACs degrade CDK12-Cyclin K complex and induce synthetic lethality with PARP inhibitor” (Eur J Med Chem, 2022).
Values belong to the compound of their own block, whether it stands above or below them. Active and inactive are the calls of the source. The calls are words filed in the database; no cut-off is given here.

What was measured:
[1] = target: T1, Protein cereblon/Cyclin-K/Cyclin-dependent kinase 12 (Homo sapiens, UniProt O75909+Q9NYV4+Q96SW2); test: Protac activity at human CRBN/CDK12/CycK in human Bel-7402 (CRBN/KO) cells assessed as degradation of CDK12 measured after 24 hrs by Western blotting assay; type: cell-based
T1 sequence (O75909 whole entry, looked up): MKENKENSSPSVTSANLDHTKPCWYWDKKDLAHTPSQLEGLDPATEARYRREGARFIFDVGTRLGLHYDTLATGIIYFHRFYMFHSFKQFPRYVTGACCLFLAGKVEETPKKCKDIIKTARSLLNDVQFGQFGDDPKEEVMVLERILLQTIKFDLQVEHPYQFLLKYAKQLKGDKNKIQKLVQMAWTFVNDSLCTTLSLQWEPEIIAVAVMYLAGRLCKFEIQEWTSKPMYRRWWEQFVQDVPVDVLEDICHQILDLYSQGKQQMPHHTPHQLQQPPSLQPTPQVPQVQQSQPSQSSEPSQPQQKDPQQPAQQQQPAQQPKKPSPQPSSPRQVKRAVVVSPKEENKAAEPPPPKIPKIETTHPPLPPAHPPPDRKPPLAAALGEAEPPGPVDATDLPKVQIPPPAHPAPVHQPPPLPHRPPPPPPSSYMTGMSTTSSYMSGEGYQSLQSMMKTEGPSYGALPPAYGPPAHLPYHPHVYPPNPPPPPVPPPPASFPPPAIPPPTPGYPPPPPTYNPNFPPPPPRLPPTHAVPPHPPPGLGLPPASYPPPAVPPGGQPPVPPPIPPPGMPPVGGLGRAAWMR
T1 sequence (Q96SW2 whole entry, looked up): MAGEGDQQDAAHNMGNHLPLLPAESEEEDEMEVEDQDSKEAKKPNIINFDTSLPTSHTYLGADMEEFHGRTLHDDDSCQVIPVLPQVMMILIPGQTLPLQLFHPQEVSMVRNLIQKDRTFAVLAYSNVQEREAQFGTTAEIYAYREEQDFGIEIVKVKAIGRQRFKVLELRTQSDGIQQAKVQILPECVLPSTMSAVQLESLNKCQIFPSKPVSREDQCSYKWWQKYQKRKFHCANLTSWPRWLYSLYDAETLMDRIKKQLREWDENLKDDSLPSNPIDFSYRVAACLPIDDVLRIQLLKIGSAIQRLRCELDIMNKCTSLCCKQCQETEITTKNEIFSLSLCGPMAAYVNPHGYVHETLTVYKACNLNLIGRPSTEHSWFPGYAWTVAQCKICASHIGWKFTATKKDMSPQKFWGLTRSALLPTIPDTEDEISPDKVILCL
T1 sequence (Q9NYV4 whole entry, looked up): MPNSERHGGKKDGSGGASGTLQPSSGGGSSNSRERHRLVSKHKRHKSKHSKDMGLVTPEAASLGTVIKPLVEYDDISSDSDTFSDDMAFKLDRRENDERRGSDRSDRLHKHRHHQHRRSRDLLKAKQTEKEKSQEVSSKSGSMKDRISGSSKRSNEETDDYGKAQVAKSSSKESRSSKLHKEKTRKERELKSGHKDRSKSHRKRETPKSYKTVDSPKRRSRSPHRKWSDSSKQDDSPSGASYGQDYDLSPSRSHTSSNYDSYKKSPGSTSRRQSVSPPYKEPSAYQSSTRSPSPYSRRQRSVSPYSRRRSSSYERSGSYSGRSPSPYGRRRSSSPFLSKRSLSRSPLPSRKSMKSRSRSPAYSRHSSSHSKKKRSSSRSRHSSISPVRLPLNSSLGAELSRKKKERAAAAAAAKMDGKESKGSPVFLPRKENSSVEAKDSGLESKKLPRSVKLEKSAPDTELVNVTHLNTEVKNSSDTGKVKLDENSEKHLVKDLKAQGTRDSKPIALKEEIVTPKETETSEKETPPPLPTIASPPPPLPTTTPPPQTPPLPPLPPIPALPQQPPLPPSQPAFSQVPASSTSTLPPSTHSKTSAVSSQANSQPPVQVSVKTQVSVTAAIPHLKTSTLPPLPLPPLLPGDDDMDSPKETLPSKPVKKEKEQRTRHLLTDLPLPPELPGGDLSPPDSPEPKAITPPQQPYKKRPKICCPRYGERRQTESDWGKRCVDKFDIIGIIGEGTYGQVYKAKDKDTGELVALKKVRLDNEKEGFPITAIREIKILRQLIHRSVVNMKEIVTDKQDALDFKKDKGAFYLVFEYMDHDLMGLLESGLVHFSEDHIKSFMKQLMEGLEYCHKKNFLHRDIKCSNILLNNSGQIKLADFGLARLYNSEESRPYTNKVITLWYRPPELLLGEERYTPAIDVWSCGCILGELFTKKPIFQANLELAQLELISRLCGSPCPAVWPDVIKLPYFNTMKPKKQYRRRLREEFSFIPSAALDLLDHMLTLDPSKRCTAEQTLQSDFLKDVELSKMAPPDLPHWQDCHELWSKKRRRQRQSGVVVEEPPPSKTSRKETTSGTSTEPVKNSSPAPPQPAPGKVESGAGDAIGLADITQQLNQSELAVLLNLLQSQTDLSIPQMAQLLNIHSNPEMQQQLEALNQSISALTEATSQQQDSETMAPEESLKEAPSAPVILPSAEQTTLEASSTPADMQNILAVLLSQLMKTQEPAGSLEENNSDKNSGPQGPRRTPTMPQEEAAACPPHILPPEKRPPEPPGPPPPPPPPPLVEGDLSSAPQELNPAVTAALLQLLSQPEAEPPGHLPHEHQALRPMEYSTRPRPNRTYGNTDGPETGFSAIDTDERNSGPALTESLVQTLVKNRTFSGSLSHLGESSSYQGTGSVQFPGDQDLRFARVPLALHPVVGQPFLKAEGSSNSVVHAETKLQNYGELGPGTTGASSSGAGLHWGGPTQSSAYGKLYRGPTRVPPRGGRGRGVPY

[2] = target: T1, Protein cereblon/Cyclin-K/Cyclin-dependent kinase 12; test: Protac activity at human CRBN/CDK12/CycK in human MDA-MB-231(CRBN/KO) cells assessed as degradation of CDK12 measured after 24 hrs by Western blotting assay; type: cell-based
[3] = target: T2, CDK12/Cyclin K (Homo sapiens) (UniProt O75909+Q9NYV4); test: Protac activity at human CDK12/CycK in human Bel-7402 (CRBN/WT) cells assessed as degradation of CDK12 measured after 24 hrs by Western blotting assay; type: cell-based
T2 sequence (O75909 whole entry, looked up): as the sequence (O75909 whole entry, looked up) above
T2 sequence (Q9NYV4 whole entry, looked up): as the sequence (Q9NYV4 whole entry, looked up) above

[4] = target: T2, CDK12/Cyclin K (Homo sapiens); test: Protac activity at human CDK12/CycK in human MDA-MB-231 (CRBN/WT) cells assessed as degradation of CDK12 measured after 24 hrs by Western blotting assay; type: cell-based
[5] = target: T1, Protein cereblon/Cyclin-K/Cyclin-dependent kinase 12; test: Protac activity at human CRBN/CDK12/CycK in human Bel-7402 cells assessed as RNAP2 CTD Ser2 phosphorylation level at 0.1 to 30 uM measured after 24 hrs by Western blotting assay; type: cell-based; conditions: dose 0.1-30 µM
[6] = target: T1, Protein cereblon/Cyclin-K/Cyclin-dependent kinase 12; test: Protac activity at human CRBN/CDK12/CycK in human MDA-MB-231 cells assessed as RNAP2 CTD Ser2 phosphorylation level at 0.1 to 30 uM measured after 24 hrs by Western blotting assay; type: cell-based; conditions: dose 0.1-30 µM
[7] = target: T1, Protein cereblon/Cyclin-K/Cyclin-dependent kinase 12; test: Protac activity at human CRBN/CDK12/CycK in human Bel-7402 cells assessed as downregulation of Mcl-1 level upto 30 uM measured after 24 hrs by Western blotting assay; type: cell-based; conditions: dose microM <=30, time 24.0 hrs
[8] = target: T1, Protein cereblon/Cyclin-K/Cyclin-dependent kinase 12; test: Protac activity at human CRBN/CDK12/CycK in human MDA-MB-231 cells assessed as downregulation of Mcl-1 level upto 30 uM measured after 24 hrs by Western blotting assay; type: cell-based; conditions: dose microM <=30, time 24.0 hrs
[9] = target: T1, Protein cereblon/Cyclin-K/Cyclin-dependent kinase 12; test: Protac activity at human CRBN/CDK12/CycK in human Bel-7402 cells assessed as degradation of CDK12 at 3 uM measured after 24 hrs by Western blotting assay; type: cell-based
[10] = target: T1, Protein cereblon/Cyclin-K/Cyclin-dependent kinase 12; test: Protac activity at human CRBN/CDK12/CycK in human MDA-MB-231 cells assessed as degradation of CDK12 at 3 uM measured after 24 hrs by Western blotting assay; type: cell-based
CDK12/Cyclin K = CDK12/Cyclin K (Homo sapiens, UniProt Q9NYV4); test: Inhibition of human CDK12 (696 to 1082 residues) /cyclinK (1 to 300 residues) using ac-YSPTSPpSYSPTSFpS-YSPTSPpSY-[PEG2]-RR-amid peptide as substrate in presence of ATP measured after 2 hrs by ADP-Glo kinase assay; type: protein-complex assay
Chain of CDK12/Cyclin K (O75909 whole entry, the tested form may be a part): as the sequence (O75909 whole entry, looked up) above
Chain of CDK12/Cyclin K (Q9NYV4 whole entry, the tested form may be a part): as the sequence (Q9NYV4 whole entry, looked up) above

[11] = target: Cyclin-dependent kinase 13 (Homo sapiens) (UniProt Q14004); test: Inhibition of human N-terminal FLAG-tagged CDK13 (600 to 1100 residues) using GST-tagged CTD as substrate at 3 uM for 2 hrs by western blot analysis
Chain of Cyclin-dependent kinase 13 (Homo sapiens) (Q14004 whole entry, looked up, the tested form may be a part): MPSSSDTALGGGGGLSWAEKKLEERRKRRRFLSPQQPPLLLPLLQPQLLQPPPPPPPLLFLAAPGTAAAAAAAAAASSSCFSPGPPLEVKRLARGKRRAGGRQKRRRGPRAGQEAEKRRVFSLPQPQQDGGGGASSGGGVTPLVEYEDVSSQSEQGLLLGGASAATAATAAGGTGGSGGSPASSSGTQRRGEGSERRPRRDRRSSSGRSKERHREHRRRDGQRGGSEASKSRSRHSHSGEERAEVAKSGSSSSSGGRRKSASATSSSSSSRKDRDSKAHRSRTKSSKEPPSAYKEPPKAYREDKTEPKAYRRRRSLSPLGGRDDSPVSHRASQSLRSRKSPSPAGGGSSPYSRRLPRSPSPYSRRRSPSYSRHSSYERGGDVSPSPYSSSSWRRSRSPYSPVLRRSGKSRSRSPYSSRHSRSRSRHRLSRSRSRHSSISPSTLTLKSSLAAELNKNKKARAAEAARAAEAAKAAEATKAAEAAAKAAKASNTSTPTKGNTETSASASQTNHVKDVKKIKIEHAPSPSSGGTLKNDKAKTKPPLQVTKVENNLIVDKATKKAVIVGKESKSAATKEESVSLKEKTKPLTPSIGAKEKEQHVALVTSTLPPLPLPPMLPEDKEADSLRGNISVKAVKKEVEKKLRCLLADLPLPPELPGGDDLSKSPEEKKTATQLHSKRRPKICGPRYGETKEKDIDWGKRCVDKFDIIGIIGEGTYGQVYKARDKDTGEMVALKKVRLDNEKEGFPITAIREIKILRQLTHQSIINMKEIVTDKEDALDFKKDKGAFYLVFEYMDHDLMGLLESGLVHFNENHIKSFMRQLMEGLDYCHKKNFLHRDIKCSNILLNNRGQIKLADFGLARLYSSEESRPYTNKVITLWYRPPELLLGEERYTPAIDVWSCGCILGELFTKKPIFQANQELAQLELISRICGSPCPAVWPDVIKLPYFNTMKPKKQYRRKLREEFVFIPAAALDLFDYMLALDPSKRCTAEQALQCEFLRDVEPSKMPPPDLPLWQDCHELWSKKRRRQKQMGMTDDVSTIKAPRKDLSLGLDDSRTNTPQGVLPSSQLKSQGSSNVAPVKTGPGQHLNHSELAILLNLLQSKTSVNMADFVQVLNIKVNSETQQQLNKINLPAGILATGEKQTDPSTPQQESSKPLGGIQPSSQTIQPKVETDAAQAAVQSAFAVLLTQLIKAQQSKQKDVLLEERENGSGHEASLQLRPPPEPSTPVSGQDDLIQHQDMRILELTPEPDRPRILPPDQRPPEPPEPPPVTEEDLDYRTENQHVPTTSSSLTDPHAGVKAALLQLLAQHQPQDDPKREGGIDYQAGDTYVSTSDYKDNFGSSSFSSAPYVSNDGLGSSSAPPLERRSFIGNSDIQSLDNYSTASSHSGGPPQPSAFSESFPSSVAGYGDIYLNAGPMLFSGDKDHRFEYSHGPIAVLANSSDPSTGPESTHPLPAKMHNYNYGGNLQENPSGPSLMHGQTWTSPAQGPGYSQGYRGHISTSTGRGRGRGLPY

Activity [9]: Active
Activity [10]: Active
SMILES: CC(C)n1cnc2c(NCc3nc4cc(F)c(NCCCCCCCCCCNC(=O)COc5cccc6c5C(=O)N(C5CCC(=O)NC5=O)C6=O)cc4[nH]3)nc(N3CCOCC3)nc21 (stereo not given)

Activity [9]: Active
IC50 (CDK12/Cyclin K): 2 µM
Activity [10]: Active
inhibition [11]: inactive
SMILES: CC(C)n1cnc2c(NCc3nc4cc(F)c(NCCCCCCCCCCCCNC(=O)COc5cccc6c5C(=O)N(C5CCC(=O)NC5=O)C6=O)cc4[nH]3)nc(N3CCOCC3)nc21 (stereo not given)

The remaining lines, values behind:

SMILES: Cn1cc(-n2cnc3c(NCc4nc5cc(Cl)c(Cl)cc5[nH]4)nc(N4CCOCC4)nc32)cn1
Activity [1]: Active
Activity [2]: Active
Activity [3]: Active
Activity [4]: Active

SMILES: CN(C)C/C=C/C(=O)Nc1ccc(C(=O)N2CCC[C@@H](Nc3ncc(Cl)c(-c4c[nH]c5ccccc45)n3)C2)cc1
Activity [5]: Active
Activity [6]: Active
Activity [7]: Active
Activity [8]: Active

SMILES: COCCOCCOc1cc2[nH]c(CNc3nc(OCC[C@@H]4CCCCN4)nc4c3ncn4C(C)C)nc2cc1F
IC50 (CDK12/Cyclin K): 0.0664 µM
